Here are results for 15 compounds from US6974823B2, “Hydantoin derivative compounds, pharmaceutical compositions, and methods of using same” (GPI NIL Holdindgs, Inc., priority 1999, dated 2005).

The test system of assay [1] is dopaminergic neurons (MPTP lesioning). Nature of the assay: MPTP model of Parkinson's Disease in mice, concurrent dosing paradigm. The note with it: male CD1 mice, anti-tyrosine hydroxylase immunostaining at 18 days; for % recovery of dopaminergic neurons at 10 mg/kg: po. The class given is in vivo. The protocol: MPTP lesioning of dopaminergic neurons in mice was used as an animal model of Parkinson's Disease. Four week old male CD1 white mice were dosed i.p. with 30 mg/kg of MPTP for 5 days. Inventive compounds (4 mg/kg), or vehicle, were administered s.c. along with the MPTP for 5 days, as well as for an additional 5 days following cessation of MPTP treatment (Table IV). Inventive compounds (10 mg/kg), or vehicle, were also administered p.o. along with the MPTP for 5 days, as well as for an additional 5 days following cessation of MPTP treatment (Table V). At 18 days following MPTP treatment, the animals were sacrificed and the striata were dissected and homogenized. Immunostaining was performed on saggital and coronal brain sections using anti-tyrosine hydoxylase Ig to quantitate survival and recovery of dopaminergic neurons. In animals treated with MPTP and vehicle, a substantial loss of functional dopaminergic terminals was observed as compared to non-lesioned animals. In another protocol, test compounds were administered only subsequent to MPTP-induced lesioning. Thus, after animals were treated with MPTP for 5 days, an additional 3 days passed before beginning oral drug treatment on day 8. Animals were treated with inventive compounds (0.4 mg/kg), administered orally, once a day for 5 days total. On day 18, the animals were sacrificed and analyzed as described above. Tables IV and V present the percent recovery of dopaminergic neurons in the first (concurrent dosing) paradigms in animals receiving hydantoin derivative compounds.
Tables IV and V, below, show the remarkable neuroregenerative effects of the inventive hydantoin derivative compounds illustrating the neurotrophic capability of these compounds as a class showing that lesioned animals receiving the hydantoin derivative compounds provide a remarkable recovery of TH-stained dopaminergic neurons.

In assay [2] the target is FKBP-12 peptidyl-prolyl isomerase (rotamase) (Homo sapiens, UniProt P62942). Nature of the assay: Ki test procedure: inhibition of FKBP peptidyl-prolyl isomerase (rotamase) activity, chymotrypsin-coupled assay. In kind it is biochemical. The note with it: apparent Ki, substrate N-succinyl-Ala-Ala-Pro-Phe-p-nitroanilide. An excerpt: The binding to FBKP12 and inhibition of the peptidyl-prolyl isomerase (rotamase) activity of the compounds used in the inventive methods and pharmaceutical compositions can be evaluated by known methods described in the literature (Harding et al., Nature, 1989, 341:758-760; Holt et al. J. Am. Chem. Soc., 115:9923-9938). These values are obtained as apparent Ki's and are presented for representative compounds in TABLE III.
The cis-trans isomerization of an alanine-proline bond in a model substrate, N-succinyl-Ala-Ala-Pro-Phe-p-nitroanilide, is monitored spectrophotometrically in a chymotrypsin-coupled assay, which releases para-nitroanilide from the trans form of the substrate. The inhibition of this reaction caused by the addition of different concentrations of inhibitor is determined, and the data is analyzed as a change in first-order rate constant as a function of inhibitor concentration to yield the apparent K1 values. […]
The absorbance at 390 nm versus time is monitored for 90 seconds using a spectrophotometer and the rate constants are determined from the absorbance versus time data files.

[3] abbreviates: Mus musculus, Neuron, 432 h, 10 mg/kg p.o. with MPTP (30 mg/kg i.p.) for 5 days plus 5 further days.

Chain of FKBP-12 peptidyl-prolyl isomerase (rotamase) (P62942 whole entry): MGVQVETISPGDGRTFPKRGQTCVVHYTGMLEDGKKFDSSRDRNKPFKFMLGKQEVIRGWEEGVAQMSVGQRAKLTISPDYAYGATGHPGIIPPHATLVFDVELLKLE

On to `O=C1[C@@H]2CCCN2C(=O)N1c1cccc2ccccc12` [Compound 1, (7aS)-2-(1-Naphthyl)perhydropyrrolo[1,2-c]imidazole-1,3-dione], for which the % recovery of dopaminergic neurons at 4 mg/kg in assay [1] (Mus musculus, Neuron, sc, 432 h, 4 mg/kg s.c. with MPTP (30 mg/kg i.p.) for 5 days plus 5 further days) was found to be 32.2%. The Ki in assay [2] was greater than 10 µM. Regarding `O=C1[C@@H]2CCCN2C(=O)N1c1ccccc1-c1ccccc1` [Compound 2, (7aS)-2-(2′-Phenyl)phenylperhydropyrrolo[1,2-c]imidazole-1,3-dione], in assay [1] (10 mg/kg p.o. with MPTP (30 mg/kg i.p.) for 5 days plus 5 further days), the “% Recovery of dopaminergic neurons” value is 38.40%. On to `O=C1[C@@H]2CCCN2C(=O)N1c1ccc(C(F)(F)F)cc1` [Compound 3, (7aS)-2-(4-(Trifluoromethyl)phenyl)perhydropyrrolo[1,2-c]imidazole-1,3-dione], for which the % recovery of dopaminergic neurons at 10 mg/kg in assay [1] (setting [3]) turned out to be 78.8%. On the same count and under the same terms, in the case of `O=C1C2CCCN2C(=S)N1Cc1ccccc1` (stereo not shown) [Compound 4, 2-benzyl-3-thioxo-2,5,6,7,7a-pentahydro-2-azapyrrolizin-1-one] it was 49.3%. Take `CCc1ccccc1N1C(=O)C2CCCN2C1=O` (stereo not shown) [Compound 6, 2-(2-ethyl)phenyl-2,5,6,7,7a-pentahydro-2-azapyrrolizin-1,3-dione]: in assay [2], the Ki is greater than 5 µM. On to `O=C1C2CCCN2C(=S)N1CCCc1ccccc1` (stereo not shown) [Compound 7, 2-(3-phenylpropyl)-3-thioxo-2,5,6,7,7a-pentahydro-2-azapyrrolizin-1-one], for which, in assay [1] (setting [3]), the % recovery of dopaminergic neurons at 10 mg/kg worked out at 37.5%. Turning to `O=C1C2CCCN2C(=S)N1CCc1ccccc1` (stereo not shown) [Compound 8, 2-(2-phenylethyl)-3-thioxo-2,5,6,7,7a-pentahydro-2-azapyrrolizin-1-one], the % recovery of dopaminergic neurons at 10 mg/kg in assay [1] (setting [3]) is 42.5%. For `O=C1C2CCCCN2C(=O)N1Cc1ccccc1` (stereo not shown) [Compound 38, 2-Benzyl-2,5,6,7,8,8a-hexahydro-2-azaindolizine-1,3-dione], in assay [1] (setting [3]), the % recovery of dopaminergic neurons at 10 mg/kg turned out to be 31.4%.

`O=C1C2CCCCN2C(=S)N1Cc1ccccc1` (stereo not shown) [Compound 39, 2-benzyl-3-thioxo-2,5,6,7,8,8a-hexahydro-2-azaindolizin-1-one]: the % recovery of dopaminergic neurons at 10 mg/kg in assay [1] (setting [3]) amounted to 11.2%. The same measure, in the same setting: the figure for `O=C1C2CCCCN2C(=S)N1CCc1ccccc1` (stereo not shown) [Compound 40, 2-(2-phenylethyl)-3-thioxo-2,5,6,7,8,8a-hexahydro-2-azaindolizin-1-one] is 11%; for `CCCCCCCN1C(=O)C2CCCCN2C1=O` (stereo not shown) [Compound 41, 2-Heptyl-2,5,6,7,8,8a-hexahydro-2-azaindolizine-1,3-dione] it is 8.8%.

For the compound `CCCCCCCCN1C(=O)C2CCCCN2C1=O` (stereo not shown) [Compound 42, 2-Octyl-2,5,6,7,8,8a-hexahydro-2-azaindolizine-1,3-dione], the % recovery of dopaminergic neurons at 10 mg/kg in assay [1] (setting [3]) stood at 17.4%.

As to `O=C1C2CCCCN2C(=S)N1CCCc1ccccc1` (stereo not shown) [Compound 43, 2-(3-phenylpropyl)-3-thioxo-2,5,6,7,8,8a-hexahydro-2-azaindolizin-1-one], the % recovery of dopaminergic neurons at 10 mg/kg in assay [1] (setting [3]) stood at 40.1%. `O=C1C2CCCCN2C(=O)N1c1ccccc1` (stereo not shown) [Compound 72, 2-phenyl-2,5,6,7,8,8a-hexahydro-2-azaindolizine-1,3-dione]: the % recovery of dopaminergic neurons at 10 mg/kg in assay [1] (setting [3]) turned out to be 37.2%.

On to `CCCCN1C(=O)C2CCCCN2C1=O` (stereo not shown) [Compound 74, 2-butyl-2,5,6,7,8,8a-hexahydro-2-azaindolizine-1,3-dione], for which the % recovery of dopaminergic neurons at 10 mg/kg in assay [1] (setting [3]) is 46.4%.
